Reference: patent publication EP0908457B1, “3-(1,2-benzisothiazol- and isoxazol-5-Y1)-2,4(1H,3H)-pyrimidinedione or thione and 3-(1,2-benzisothiazol- and isoxazol-5-y1)-4(3H)-pyrimidinone or thione herbicidal agents” (BASF AKTIENGESELLSCHAFT, priority 1997, dated 1999)

Legend:
Cyperus iria = experiment: Preemergence weed control under flooded paddy conditions, CYPIR (Rice Flatsedge); type: in vivo; conditions: preemergence weeds, flooded paddy, rated three to four weeks after treatment; further: meaning of each grade not given here
[1] = system: Cyperus serotinus, Rottb.; experiment: Preemergence weed control under flooded paddy conditions, CYPSE (Flatsedge); type: in vivo; conditions: preemergence weeds, rated three to four weeks after treatment; further: meaning of each grade not given here
[2] = system: Monochoria vaginalis, Presl.; experiment: Preemergence weed control under flooded paddy conditions, MOOVA (Monochoria); type: in vivo; conditions: preemergence weeds, flooded paddy, rated three to four weeks after treatment; further: meaning of each grade not given here
[3] = system: Echinochloa oryzoides (Ard.) Fritsch.; experiment: Preemergence weed control under flooded paddy conditions, ECHORC (Watergrass (Calif.)); type: in vivo; conditions: preemergence weeds, flooded paddy, rated three to four weeks after treatment; further: meaning of each grade not given here
Sagittaria pygmaea, L. = experiment: Preemergence weed control under flooded paddy conditions, SAGPY (Arrowhead (Pygmaea)); type: in vivo; conditions: preemergence weeds, flooded paddy, rated three to four weeks after treatment; further: meaning of each grade not given here
[4] = system: Oryza sativa, (L.) Tebonnet; experiment: Rice tolerance to post-transplant applications under flooded paddy conditions (Example 187), ORYSAT (Rice, Tebonnet); conditions: rated three to four weeks after treatment

Cc1ccc(S(=O)(=O)NC(=O)COc2ccc(C)cc2-c2nsc3ccc(-n4c(=O)cc(C(F)(F)F)n(C)c4=O)cc23)cc1 [Example 122, N-{{{2-{5-[3,6-Dihydro-3-methyl-2,6-dioxo-4-(trifluoromethyl)-1(2H)-pyrimidinyl]-1,2-benzisothiazol-3-yl}-p-tolyl}oxy}acetyl}-p-toluenesulfonamide]
herbicidal effect rating, CYPIR (Cyperus iria; 0.0313 kg/ha): 0.0 | herbicidal effect rating, CYPIR (Cyperus iria; 0.0625 kg/ha): 0.0 | herbicidal effect rating, CYPIR (Cyperus iria; 0.1250 kg/ha): 0.0 | herbicidal effect rating, CYPIR (Cyperus iria; 0.2500 kg/ha): 0.0 | herbicidal effect rating, CYPSE ([1]; 0.0313 kg/ha): 0.0 | herbicidal effect rating, CYPSE ([1]; 0.0625 kg/ha): 0.0 | herbicidal effect rating, CYPSE ([1]; 0.1250 kg/ha): 0.0 | herbicidal effect rating, CYPSE ([1]; 0.2500 kg/ha): 0.0 | herbicidal effect rating, MOOVA ([2]; 0.0313 kg/ha): 6.0 | herbicidal effect rating, MOOVA ([2]; 0.0625 kg/ha): 8.0 | herbicidal effect rating, MOOVA ([2]; 0.1250 kg/ha): 9.0 | herbicidal effect rating, MOOVA ([2]; 0.2500 kg/ha): 9.0 | herbicidal effect rating, ECHORC ([3]; 0.0313 kg/ha): 4.0 | herbicidal effect rating, ECHORC ([3]; 0.0625 kg/ha): 7.0 | herbicidal effect rating, ECHORC ([3]; 0.1250 kg/ha): 8.0 | herbicidal effect rating, ECHORC ([3]; 0.2500 kg/ha): 9.0 | herbicidal effect rating, SAGPY (Sagittaria pygmaea, L.; 0.0313 kg/ha): 0.0 | herbicidal effect rating, SAGPY (Sagittaria pygmaea, L.; 0.0625 kg/ha): 0.0 | herbicidal effect rating, SAGPY (Sagittaria pygmaea, L.; 0.1250 kg/ha): 0.0 | herbicidal effect rating, SAGPY (Sagittaria pygmaea, L.; 0.2500 kg/ha): 0.0 | herbicidal effect rating, ORYSAT (rice tolerance) ([4]; 0.0313 kg/ha): 2.0 | herbicidal effect rating, ORYSAT (rice tolerance) ([4]; 0.0625 kg/ha): 3.0 | herbicidal effect rating, ORYSAT (rice tolerance) ([4]; 0.1250 kg/ha): 4.0 | herbicidal effect rating, ORYSAT (rice tolerance) ([4]; 0.2500 kg/ha): 4.0

Cn1c(C(F)(F)F)cc(=O)n(-c2ccc3snc(COC(=O)c4ccccc4)c3c2)c1=O [Example 143, 3-[3-(Hydroxymethyl)-1,2-benzisothiazol-5-yl]-1-methyl-6-(trifluoromethyl)-2,4(1H,3H)-pyrimidinedione, benzoate (ester)]
herbicidal effect rating, CYPIR (Cyperus iria; 0.0313 kg/ha): 0.0 | herbicidal effect rating, CYPIR (Cyperus iria; 0.0625 kg/ha): 0.0 | herbicidal effect rating, CYPIR (Cyperus iria; 0.1250 kg/ha): 0.0 | herbicidal effect rating, CYPIR (Cyperus iria; 0.2500 kg/ha): 0.0 | herbicidal effect rating, CYPSE ([1]; 0.0313 kg/ha): 0.0 | herbicidal effect rating, CYPSE ([1]; 0.0625 kg/ha): 0.0 | herbicidal effect rating, CYPSE ([1]; 0.1250 kg/ha): 0.0 | herbicidal effect rating, CYPSE ([1]; 0.2500 kg/ha): 0.0 | herbicidal effect rating, MOOVA ([2]; 0.0313 kg/ha): 9.0 | herbicidal effect rating, MOOVA ([2]; 0.0625 kg/ha): 9.0 | herbicidal effect rating, MOOVA ([2]; 0.1250 kg/ha): 9.0 | herbicidal effect rating, MOOVA ([2]; 0.2500 kg/ha): 9.0 | herbicidal effect rating, ECHORC ([3]; 0.0313 kg/ha): 0.0 | herbicidal effect rating, ECHORC ([3]; 0.0625 kg/ha): 0.0 | herbicidal effect rating, ECHORC ([3]; 0.1250 kg/ha): 2.0 | herbicidal effect rating, ECHORC ([3]; 0.2500 kg/ha): 6.0 | herbicidal effect rating, SAGPY (Sagittaria pygmaea, L.; 0.0313 kg/ha): 0.0 | herbicidal effect rating, SAGPY (Sagittaria pygmaea, L.; 0.0625 kg/ha): 0.0 | herbicidal effect rating, SAGPY (Sagittaria pygmaea, L.; 0.1250 kg/ha): 0.0 | herbicidal effect rating, SAGPY (Sagittaria pygmaea, L.; 0.2500 kg/ha): 0.0 | herbicidal effect rating, ORYSAT (rice tolerance) ([4]; 0.0313 kg/ha): 3.0 | herbicidal effect rating, ORYSAT (rice tolerance) ([4]; 0.0625 kg/ha): 3.0 | herbicidal effect rating, ORYSAT (rice tolerance) ([4]; 0.1250 kg/ha): 3.0 | herbicidal effect rating, ORYSAT (rice tolerance) ([4]; 0.2500 kg/ha): 4.0

Cc1ccc(OCC(=O)OC2C=CCCC2)c(-c2nsc3ccc(-n4c(=O)cc(C(F)(F)F)n(C)c4=O)cc23)c1 (stereo not drawn) [Example 185, 2-Cyclohexen-1-yl {{2-{5-[3,6-dihydro-3-methyl-2,6-dioxo-4-(trifluoromethyl)-1(2H)-pyrimidinyl]-1,2-benzisothiazol-3-yl}-p-tolyl}oxy}acetate]
herbicidal effect rating, CYPIR (Cyperus iria; 0.0315 kg/ha): 0.0 | herbicidal effect rating, CYPIR (Cyperus iria; 0.0630 kg/ha): 0.0 | herbicidal effect rating, CYPSE ([1]; 0.0315 kg/ha): 0.0 | herbicidal effect rating, CYPSE ([1]; 0.0630 kg/ha): 0.0 | herbicidal effect rating, MOOVA ([2]; 0.0315 kg/ha): 9.0 | herbicidal effect rating, MOOVA ([2]; 0.0630 kg/ha): 9.0 | herbicidal effect rating, ECHORC ([3]; 0.0315 kg/ha): 0.0 | herbicidal effect rating, ECHORC ([3]; 0.0630 kg/ha): 0.0 | herbicidal effect rating, SAGPY (Sagittaria pygmaea, L.; 0.0315 kg/ha): 0.0 | herbicidal effect rating, SAGPY (Sagittaria pygmaea, L.; 0.0630 kg/ha): 0.0 | herbicidal effect rating, ORYSAT (rice tolerance) ([4]; 0.0315 kg/ha): 0.0 | herbicidal effect rating, ORYSAT (rice tolerance) ([4]; 0.0630 kg/ha): 0.0
